Each structure is given as a SMILES string. Calls of active or inactive are those of the source. How the calls were made is not given here.

The results in this text go back to PubChem BioAssay AID1259407 (Chemical Carcinogenesis Research Information System (CCRIS), 2018).

For this series, the system named is CCRIS mutagenicity, Ames/micronucleus/aberration tests. Kind of series: CCRIS mutagenicity studies.
The mark [1] stands for this setting: Test System: AMES SALMONELLA TYPHIMURIUM, Strain/Indicator: TA98, Metabolic Activation: NONE, Method: PREINCUBATION
The mark [2] stands for this setting: Test System: AMES SALMONELLA TYPHIMURIUM, Strain/Indicator: TA100, Metabolic Activation: NONE, Method: PREINCUBATION
[3] abbreviates: Test System: AMES SALMONELLA TYPHIMURIUM, Strain/Indicator: TA104, Metabolic Activation: NONE, Method: PREINCUBATION

`O=C(O)C(=O)O`: the mutagenic call (Test System: AMES SALMONELLA TYPHIMURIUM, Strain/Indicator: TA97, Metabolic Activation: NONE, Method: PREINCUBATION) is “inactive; negative”; the mutagenic call (Test System: AMES SALMONELLA TYPHIMURIUM, Strain/Indicator: TA97, Metabolic Activation: RAT, LIVER, S-9, PHENOBARBITAL AND 5,6-BENZOFLAVONE, Method: PREINCUBATION) was “inactive; negative”; the mutagenic call (Test System: AMES SALMONELLA TYPHIMURIUM, Strain/Indicator: TA97, Metabolic Activation: S-9, Method: PREINCUBATION) is “inactive; negative”; the mutagenic call under setting [1] is “inactive; negative”; the mutagenic call (Test System: AMES SALMONELLA TYPHIMURIUM, Strain/Indicator: TA98, Metabolic Activation: RAT, LIVER, S-9, PHENOBARBITAL AND 5,6-BENZOFLAVONE, Method: PREINCUBATION) is “inactive; negative”; the mutagenic call (Test System: AMES SALMONELLA TYPHIMURIUM, Strain/Indicator: TA98, Metabolic Activation: RAT, LIVER, S-9, SODIUM PHENOBARBITAL AND 5,6-BENZOFLAVONE, Method: PREINCUBATION) was “inactive; negative”. Further, the mutagenic call is “inactive; negative” under setting [2]; “active; positive” (Test System: AMES SALMONELLA TYPHIMURIUM, Strain/Indicator: TA100, Metabolic Activation: NONE, Method: PREINCUBATION (11 HR GROWTH PERIOD FOR BACTERIA)); “inactive; negative” (Test System: AMES SALMONELLA TYPHIMURIUM, Strain/Indicator: TA100, Metabolic Activation: RAT, LIVER, S-9, PCB, Method: PREINCUBATION (11 HR GROWTH PERIOD FOR BACTERIA)); “inactive; negative” (Test System: AMES SALMONELLA TYPHIMURIUM, Strain/Indicator: TA100, Metabolic Activation: RAT, LIVER, S-9, PHENOBARBITAL AND 5,6-BENZOFLAVONE, Method: PREINCUBATION); “inactive; negative” (Test System: AMES SALMONELLA TYPHIMURIUM, Strain/Indicator: TA100, Metabolic Activation: RAT, LIVER, S-9, SODIUM PHENOBARBITAL AND 5,6-BENZOFLAVONE, Method: PREINCUBATION); “active; positive” (Test System: AMES SALMONELLA TYPHIMURIUM, Strain/Indicator: TA102, Metabolic Activation: NONE, Method: PREINCUBATION (5, 7 OR 11 HR GROWTH PERIOD FOR BACTERIA)). The mutagenic call was “inactive; negative” (Test System: AMES SALMONELLA TYPHIMURIUM, Strain/Indicator: TA102, Metabolic Activation: RAT, LIVER, S-9, PCB, Method: PREINCUBATION (5 OR 7 HR GROWTH PERIOD FOR BACTERIA)); “inactive; negative” (Test System: AMES SALMONELLA TYPHIMURIUM, Strain/Indicator: TA102, Metabolic Activation: RAT, LIVER, S-9, PHENOBARBITAL AND 5,6-BENZOFLAVONE, Method: PREINCUBATION); “inactive; negative” (Test System: AMES SALMONELLA TYPHIMURIUM, Strain/Indicator: TA102, Metabolic Activation: RAT, LIVER, S-9, SODIUM PHENOBARBITAL AND 5,6-BENZOFLAVONE, Method: PREINCUBATION); “inactive; negative” (Test System: AMES SALMONELLA TYPHIMURIUM, Strain/Indicator: TA102, Metabolic Activation: S-9, Method: PREINCUBATION); “inactive; negative” under setting [3]; “inactive; negative” (Test System: AMES SALMONELLA TYPHIMURIUM, Strain/Indicator: TA104, Metabolic Activation: RAT, LIVER, S-9, PHENOBARBITAL AND 5,6-BENZOFLAVONE, Method: PREINCUBATION). Also, the mutagenic call is, setting by setting: (Test System: AMES SALMONELLA TYPHIMURIUM, Strain/Indicator: TA104, Metabolic Activation: RAT, LIVER, S-9, SODIUM PHENOBARBITAL AND 5,6-BENZOFLAVONE, Method: PREINCUBATION) “inactive; negative”; (Test System: AMES SALMONELLA TYPHIMURIUM, Strain/Indicator: TA1535, Metabolic Activation: NONE, Method: PREINCUBATION) “inactive; negative”; (Test System: AMES SALMONELLA TYPHIMURIUM, Strain/Indicator: TA1535, Metabolic Activation: RAT, LIVER, S-9, SODIUM PHENOBARBITAL AND 5,6-BENZOFLAVONE, Method: PREINCUBATION) “inactive; negative”; (Test System: AMES SALMONELLA TYPHIMURIUM, Strain/Indicator: TA1537, Metabolic Activation: NONE, Method: PREINCUBATION) “inactive; negative”; (Test System: AMES SALMONELLA TYPHIMURIUM, Strain/Indicator: TA1537, Metabolic Activation: RAT, LIVER, S-9, SODIUM PHENOBARBITAL AND 5,6-BENZOFLAVONE, Method: PREINCUBATION) “inactive; negative”; (Test System: E. COLI, Strain/Indicator: WP2UVRA/PKM101, Metabolic Activation: NONE, Method: PREINCUBATION) “inactive; negative”. The mutagenic call by setting is: (Test System: E. COLI, Strain/Indicator: WP2UVRA/PKM101, Metabolic Activation: RAT, LIVER, S-9, SODIUM PHENOBARBITAL AND 5,6-BENZOFLAVONE, Method: PREINCUBATION) “inactive; negative”; (Test System: E. COLI, Strain/Indicator: WP2UVRA, Metabolic Activation: NONE, Method: PREINCUBATION) “inactive; negative”; (Test System: E. COLI, Strain/Indicator: WP2UVRA, Metabolic Activation: RAT, LIVER, S-9, SODIUM PHENOBARBITAL AND 5,6-BENZOFLAVONE, Method: PREINCUBATION) “inactive; negative”.

Regarding `CC1(C)CC(N)CC(C)(CN)C1` (configuration not stated), the mutagenic call runs as follows: under setting [1], “inactive; negative”; (Test System: AMES SALMONELLA TYPHIMURIUM, Strain/Indicator: TA98, Metabolic Activation: RAT, LIVER, S-9, PCB, Method: PREINCUBATION) “inactive; negative”; under setting [2], “inactive; negative”; (Test System: AMES SALMONELLA TYPHIMURIUM, Strain/Indicator: TA100, Metabolic Activation: RAT, LIVER, S-9, PCB, Method: PREINCUBATION) “inactive; negative”.

`COc1ccc(-c2nc(-c3ccccc3)c(-c3ccccc3)[nH]2)cc1OC`: the mutagenic call (Test System: AMES SALMONELLA TYPHIMURIUM, Strain/Indicator: TA98, Metabolic Activation: NONE, Method: STANDARD PLATE) is “active; positive”; the mutagenic call (Test System: AMES SALMONELLA TYPHIMURIUM, Strain/Indicator: TA100, Metabolic Activation: NONE, Method: STANDARD PLATE) is “active; positive”; the mutagenic call (Test System: AMES SALMONELLA TYPHIMURIUM, Strain/Indicator: TA100, Metabolic Activation: RAT LIVER S-9, 3-METHYLCHOLANTHRENE, SODIUM PHENOBARBITAL, Method: STANDARD PLATE) is “active; positive”.

On to `CCOC(C)C(=O)C(O)O` (configuration not stated), for which the mutagenic call (Test System: AMES SALMONELLA TYPHIMURIUM, Strain/Indicator: TA102, Metabolic Activation: NONE, Method: STANDARD PLATE) was “active; positive”; the mutagenic call under setting [3] was “active; positive”; the mutagenic call (Test System: AMES SALMONELLA TYPHIMURIUM, Strain/Indicator: TA2638A, Metabolic Activation: NONE, Method: STANDARD PLATE) was “active; positive”.
